Experimental data reported in a melting point compilation (Tetko et al.; mined from patent text by program, amines drawn as free bases though some values may be those of a salt).

First: COc1ccc(C(=O)CCCCCBr)cc1Cl
Second: COc1ccc(C(=O)O)c(Cl)c1Cl
The melting point of the first is lower: 104 to 106 °C for the first, 224 to 226 °C for the second.

First: O=C(CCN1CCN(c2cccc(C(F)(F)F)c2)CC1)c1ccc2c(c1)Cc1cc(C(=O)CCN3CCN(c4cccc(C(F)(F)F)c4)CC3)ccc1O2
Second: O=C(O)CCOc1ccc(CCNC(=O)C2Cc3ccccc3N2S(=O)(=O)c2ccc(-c3cccc(C(F)(F)F)c3)cc2)cc1 (stereo not drawn)
The melting point of the first is higher: 155 to 157 °C for the first, 70 °C for the second.

Compared with `CCn1ncc(OCc2ccc(C(=O)c3ccc(Cl)cc3)s2)c(Cl)c1=O`, `Cn1c(=O)c(=O)n(Cc2ccc(Cl)cc2Cl)c2cc(C(=O)O)ccc21` is higher in melting point: 168 °C for the first, 320 to 322 °C for the second.

Compared with `C#CC(CC(=O)OC)c1ccc(OC)c(OC2CCCC2)c1` (racemic), `COc1cccc(CN[C@@H](C)C2CCCCC2)c1O` is higher in melting point: 41 to 42 °C for the first, 65 to 66 °C for the second.

First: Cc1c2c(cnc3ccccc32)nn1-c1ccccc1
Second: C=CC(=O)c1c(-c2ccccc2)[nH]c2ccccc12
The melting point of the first is lower: 128 to 130 °C for the first, 145 to 146 °C for the second.

Compared with `c1cc2c3c(c1)C1CCCCCCC1N3CCNC2` (stereo not drawn), `CN(C)CCC1CCCCN1C1c2ccccc2Oc2ccccc21` (stereo not drawn) is higher in melting point: 58 to 63 °C for the first, 64 to 67 °C for the second.

First: Cc1oc(C=Cc2ccccc2)nc1CCl
Second: Brc1cnn(Cc2ccccc2)c1
The melting point of the first is higher: 108 to 109 °C for the first, 51 to 52 °C for the second.

First: CC(C)Oc1cc(N2CCC(C(F)(F)F)CC2=O)c(F)cc1Cl (stereo not drawn)
Second: CCN(CC)C(=O)n1nc(Oc2ncc(C(F)(F)F)cc2Cl)cc1C(F)(F)F
The melting point of the first is higher: 98 to 102 °C for the first, 58 to 60 °C for the second.

`C=CCc1cc(Cc2cnc(N)nc2N)c2cccnc2c1OC` and `CN1CCN(c2nc3sc4c(NCCc5ccccn5)ncnc4c3c3c2COC(C)(C)C3)CC1` cannot be ordered by melting point: 227 to 228 °C for the first, 227 to 229 °C for the second.

First: Cc1cccc(-c2nc(O)cc(-c3ccccc3Cl)n2)n1
Second: Cc1nnc2n1-c1ccc(Cl)cc1C(c1ccccc1)=CC2
The melting point of the first is lower: 196 °C for the first, 235 °C for the second.

Compared with `CCCCC(=O)Nc1c(C(=O)c2cccc(Cl)c2)[nH]c2cc(Cl)ccc12`, `CCCCOc1cc(OC)ccc1C(=O)c1cccc(C(=O)O)c1` is lower in melting point: 159 to 160 °C for the first, 112 to 115 °C for the second.

First: O=C(O)c1cc2cnc3ccccc3n2c1
Second: Clc1cc(Cl)nc(-n2cnc3ccccc32)n1
The melting point of the first is higher: 242 to 247 °C for the first, 173 to 175 °C for the second.

First: Cc1cccc(COCc2cccc(OCc3ccc4ccccc4n3)c2)c1C(=O)O
Second: Cc1ccccc1C(=O)Nc1ccc(C(=O)N2Cc3ccc(Cl)n3Cc3ccccc32)cc1
The melting point of the first is lower: 39 to 65 °C for the first, 185 to 187 °C for the second.

First: COC(=O)CCc1c(CCO)ccc2c1CCC(NS(=O)(=O)c1ccc(Cl)cc1)C2 (stereo not drawn)
Second: CCc1cccc(NS(=O)(=O)c2ccc(N3CCNC3=O)cc2)c1
The melting point of the first is lower: 132 °C for the first, 188 to 190 °C for the second.

First: O=[N+]([O-])CCc1cccc2ccccc12
Second: CCNC(=O)n1ccc2ccccc21
The melting point of the first is lower: 45 to 46 °C for the first, 71 to 73 °C for the second.

Compared with `CCc1cc(C(=O)c2ccccc2Cl)c(-n2c(C)nnc2CNC(=O)Cc2ccccc2)s1`, `Nc1cccc(-c2cc(NC(=O)c3cccs3)nc(-c3ccccc3O)c2)c1` is higher in melting point: 153 to 155 °C for the first, 161 to 162 °C for the second.

First: COc1ccc(-c2cc(-c3ccc(-c4c(Cc5ccccc5)sc5ccccc45)c(Br)c3)ccc2OCC(=O)O)cc1OC
Second: O=C1c2ccccc2-c2cc(Nc3nc(Nc4ccc5c(c4)-c4ccccc4C5=O)nc(-c4cccn4Cc4ccccc4)n3)ccc21
The melting point of the first is lower: 103 to 105 °C for the first, 140 to 142 °C for the second.

Compared with `Cc1ccc(-c2cc(F)cc3c2NC(CN)CO3)c(C(F)(F)F)c1` (stereo not drawn), `C[C@@H](n1cnc2cc(OCC(F)F)ccc2c1=O)[C@](O)(Cn1cncn1)c1ccc(F)cc1F` is higher in melting point: 86 °C for the first, 96 to 102 °C for the second.

First: Clc1cccc(-c2cnccn2)c1
Second: O=C(NCc1ccccn1)c1cc2ccnc(Cl)c2[nH]1
The melting point of the first is lower: 53 to 54 °C for the first, 177 to 183 °C for the second.

Compared with `CCOC(=O)CC(=O)C(C)(C)Sc1ccccc1`, `CNC(=O)[C@@H]1C[C@@H](OC)CN1C(=O)OCc1ccccc1` is higher in melting point: 44 to 45 °C for the first, 45 to 47 °C for the second.

First: O=C(O)COc1ccc(SCc2ccc(-c3ccc(C(F)(F)F)cc3)cc2)c2c1CCCO2
Second: O[C@H](CCc1cccnc1)COc1ccc(-c2ccc(Cl)cc2)cc1
The melting point of the first is higher: 122 to 124 °C for the first, 117 to 118 °C for the second.

First: COC(=O)N[C@H]1CC[C@H](CCN2CCN(c3cccc(Cl)c3Cl)CC2)CC1
Second: CC(=O)NCc1ccc(CN2CCN(c3ccc(Cl)cc3)CC2)cc1
The melting point of the first is lower: 143 to 147 °C for the first, 180 to 182 °C for the second.

First: O=C(NC1CCCCC1=Cc1ccccc1)C(F)(F)F (stereo not drawn)
Second: CC(=O)SC1NC(=O)C1Cc1ccccc1 (stereo not drawn)
The melting point of the first is higher: 109 to 110 °C for the first, 42 to 43 °C for the second.

First: COc1ccc(NC(=NC#N)NC(NC(=O)c2cccc(Cl)c2)C(C)(Cl)Cl)cn1 (stereo not drawn)
Second: CC(=N)NC(=O)Nc1ccc(C#N)c(Cl)c1
The melting point of the first is higher: 189 to 190 °C for the first, 182 to 183 °C for the second.

First: CCNC(=O)Nc1nc2cc(-c3cccnc3)cc(-c3nc(C)no3)n2n1
Second: CCNC(=O)c1ccc(N2CCN(Cc3cnc4c(c3)[nH]c(=O)n3cccc43)CC2)c(F)c1
The melting point of the first is higher: 298 to 301 °C for the first, 263 to 267 °C for the second.

First: CN(CCOc1ccc(C=C2SC(=O)NC2=O)cc1)c1nccs1
Second: COc1ccc2c(c1)OC(CNCCCOc1cc3ccccc3oc1=O)CO2 (stereo not drawn)
The melting point of the first is higher: 212 °C for the first, 176 to 178 °C for the second.

Compared with `CCNc1nc(C(C)C)nc(Cl)c1[N+](=O)[O-]`, `Cc1cc(C)nc(N(CCN(C(C)C)C(C)C)C(N)=O)n1` is higher in melting point: 50 °C for the first, 134 to 136 °C for the second.

Compared with `CC(C)(O)c1ccc(C2CCNCC2)c(F)c1`, `Cc1cccc2c(=O)[nH]c(C3CCN(CCCO)CC3)cc12` is higher in melting point: 151 °C for the first, 197 to 199 °C for the second.

First: CC(C)(C)NC(=O)C(C#N)C(=O)C1CC1 (stereo not drawn)
Second: COc1nc(C)c(CC2CC2)c(C(O)c2cc(Cl)cc(C#N)c2)c1C(C)C (stereo not drawn)
The melting point of the first is lower: 97 to 98.5 °C for the first, 237 to 238 °C for the second.

First: CNC(=S)NCCSCc1cnccn1
Second: S=C(Cc1ccncc1)N1CCOCC1
The melting point of the first is lower: 99.5 to 100 °C for the first, 162 to 163 °C for the second.

First: CC1(C)C(C=C(F)C(=O)O)C1C(=O)OCc1ccccc1 (stereo not drawn)
Second: CCOC(=O)C1=C(C)NC(CO)=C(C(=O)OCC)C1c1ccccc1/C=C/C(=O)OC(C)(C)C (stereo not drawn)
The melting point of the first is lower: 88 °C for the first, 163 to 164 °C for the second.

Compared with `CCCc1cc2c(s1)[C@@H](O)[C@H]1C[C@]2(O)C(=O)O1`, `CCCCCCCCc1cc2c(s1)NC(=O)CN=C2c1ccccc1Cl` is higher in melting point: 120 to 125 °C for the first, 131 to 133 °C for the second.

First: CC(=O)OCc1ccc2oc(=O)c(C(=O)Oc3cncc(Cl)c3)cc2c1
Second: COc1ccc2cc(CC(C(C)=O)C(=O)OC(C)(C)C)ccc2c1 (stereo not drawn)
The melting point of the first is higher: 153 to 155 °C for the first, 63.6 °C for the second.

First: CC1CN(Cn2cc(C#N)c(-c3cccc(Cl)c3Cl)c2)CC(C)O1 (stereo not drawn)
Second: CC1(C)Oc2ccc(C#N)cc2[C@@H](N2CCSC2=NC#N)[C@@H]1O
The melting point of the first is lower: 91 to 97 °C for the first, 272 to 274 °C for the second.

First: CCCc1c(OCCCSc2c(F)cccc2C(=O)CCC(=O)O)ccc(C(C)=O)c1O
Second: CCCc1c(OCC(O)CSc2nnc(SCC(=O)O)s2)ccc(C(C)=O)c1O (stereo not drawn)
The melting point of the first is higher: 115 to 116 °C for the first, 72 to 75 °C for the second.

First: CNCC1CN(c2c(F)cc3c(=O)c(C(=O)O)cn(C4CC4)c3c2F)CC1C (stereo not drawn)
Second: O=C(NCC12CC3CC(CC(C3)C1)C2)c1c(Cl)ccc2nc(N3CCC[C@@H](C(=O)O)C3)ccc12
The melting point of the first is lower: 252 to 254 °C for the first, 257 to 262 °C for the second.

First: OC(Cn1cncn1)c1ccc(Oc2ccc(Br)cc2)cc1Cl (stereo not drawn)
Second: Cc1cc(OCc2c(-c3c(Cl)cccc3Cl)noc2C(C)C)cnc1Oc1ccc(C(=O)O)cc1
The melting point of the first is higher: 115 to 118 °C for the first, 74 to 76 °C for the second.

First: CC(C(=O)c1ccc2[nH]ccc2c1)N1CCC(O)(c2ccccc2)CC1 (stereo not drawn)
Second: C[C@H](CN(C(=O)C1(C)C2CCC1CC2)c1ccccn1)N1CCN(c2cccc3[nH]ccc23)CC1 (stereo partly drawn)
The melting point of the first is lower: 60 to 70 °C for the first, 236 to 238 °C for the second.

Compared with `Oc1ccc(Sc2ccc(-c3ccc(Sc4ccc(O)cc4)cc3)cc2)cc1`, `CC1C(=O)N(c2ccccc2)C(=S)N1c1ccc(Oc2ccccc2)cc1` (stereo not drawn) is lower in melting point: 214 to 217 °C for the first, 141 °C for the second.

First: CN(CCc1ccc(NS(C)(=O)=O)cc1)Cc1ccc2cc(NS(C)(=O)=O)ccc2n1
Second: CN1CCC(N(Cc2cccn2C)S(=O)(=O)c2ccc(Nc3nccc(Nc4ccc(F)cc4)n3)cc2)CC1
The melting point of the first is higher: 165 to 166 °C for the first, 129 °C for the second.

First: NC(=O)c1cnn2c1N(C(=S)NC(=O)c1ccccc1)CC=C2c1cccc(C(F)(F)F)c1
Second: O=C(O)CCc1cc2ccc(C(F)(F)F)cc2n1S(=O)(=O)c1ccccc1
The melting point of the first is higher: 210 to 212 °C for the first, 168 to 169 °C for the second.

First: CC(C)OC(=O)N1CCC(c2nc3cc(-c4ccc(-n5cnnn5)c(F)c4)ccc3o2)CC1
Second: C[C@@]1(CN2CCN(C(=O)OCc3ccc(F)cc3)CC2)Cn2cc([N+](=O)[O-])nc2O1
The melting point of the first is higher: 187 to 191 °C for the first, 167 to 169 °C for the second.

Compared with `CCO[C@@H](C)c1nnc([C@H](C)OCC)n1N[C@H](CC)C(OC)OC`, `CC(C)c1nn(-c2ccc(C(F)(F)F)cn2)cc1CO` is higher in melting point: 88 °C for the first, 119 to 120 °C for the second.

First: COCCOC(=O)COc1cc(F)ccc1C(=O)NCc1cccc([N+](=O)[O-])c1
Second: CC(=O)Nc1ccc(OCC(=O)O)c(C(=O)NCc2ccc(Br)cc2F)c1
The melting point of the first is lower: 112 to 115 °C for the first, 235 °C for the second.

First: CC1(C)C(=O)Nc2cc3[nH]c(N)nc3cc21
Second: CCOC(=O)C1=C(C)NC(=O)N(C(=O)CC)C1c1cccc([N+](=O)[O-])c1 (stereo not drawn)
The melting point of the first is higher: 300 to 305 °C for the first, 152 to 154 °C for the second.

Compared with `CCCC(C)(C)c1nsc(N=CN(C)C)c1C#N`, `CC(C)(CN1CCN(C(=O)c2ccc(OC(=O)Cc3ccccc3Nc3c(Cl)cccc3Cl)cc2)CC1)SN=O` is lower in melting point: 65 to 67 °C for the first, 61 to 62 °C for the second.

Compared with `Cc1nc(NC(=O)c2cnn3c(C(F)(F)F)cc(-c4ccc(C(F)(F)F)cc4)nc23)sc1S(=O)(=O)N(CCO)CCO`, `O=C(CCc1cccnc1)NCCCCC1CCN(C2c3ccccc3COc3ccccc32)CC1` (stereo not drawn) is lower in melting point: 214 °C for the first, 110 to 112 °C for the second.

First: CC(S)Cn1c(=O)[nH]c2ccccc2c1=O (stereo not drawn)
Second: CS(=O)(=O)c1ccc(CCl)cc1
The melting point of the first is higher: 206 to 208 °C for the first, 102 °C for the second.

First: CCC(CC(Oc1ccccc1)C(=O)O)Oc1ccc(Cl)cc1 (stereo not drawn)
Second: C1=Nc2ccccc2N2CCCc3cccc1c32
The melting point of the first is lower: 94 °C for the first, 118 to 120 °C for the second.
